This note sets out measurements from patent US4839346A, “Antitumor anthracycline glycosides, intermediates thereof, and composition and use thereof” (priority 1986, dated 1989).

One series deals with P388 cells. Briefly: Cytotoxic activity in vitro, cell counting after 48 hours exposure. The format is cell-based. The note with it: Mus musculus. As for the experimental part:
(§1) Compound IB has been tested in comparison with daunorubicin (DNR) against HeLa and P388 cells in vitro (Table 1).
(§2) Cytotoxic activity of IB in comparison
^++ CYTOTOXICITY EVALUATED AFTER 48 HOURS EXPOSURE TO THE DRUGS BY
CELL COUNTING TECHNIQUE.

A short description of series [1]: In vivo effect against disseminated Gross leukemia in C3H mice. The note with it: mouse, in vivo; iv, mice with disseminated Gross leukemia; read-out: maxima tolerated dose (MxTD). As for the experimental part: (§3) EFFECT AGAINST GROSS LEUKEMIA^(A)
(§4) ^(A) EXPERIMENTS WERE PERFORMED IN C3H MICE, INOCULATED WITH 2 .times
(§5) 10^6 LEUKEMIA CELLS I.V.
(§6) ^(B) TREATMENT I.V. ON DAY 1 AFTER TUMOR INOCULUM.
(§7) ^(C) MEDIAN SURVIVAL TIME OF TREATED MICE/MEDIAN SURVIVAL TIME OF
(§8) ^(D) EVALUATED ON THE BASIS OF AUTOPSY FINDINGS.

Series [2] has as its system disseminated Gross leukemia. The series is described as above. The note with it: for TOXIC DEATHS: evaluated on the basis of autopsy findings; for T/C %: median survival time treated/controls × 100. How it is done:
as §3, §4, §5, §6, §7, §8

The subject of a further series is HeLa cells. Briefly: Cytotoxic activity in vitro, colony inhibition test after 24 hours exposure. The format is cell-based. The note with it: Homo sapiens. As for the experimental part: as §1, §2
^+ COLONY INHIBITION TEST AFTER 24 HOURS EXPOSURE TO THE DRUGS.

Values after ≈ are worked out from the molar mass of the structure shown. Read-outs that look alike come from different tables or passages of the source.

Take `COc1cccc2c1C(=O)c1c(O)c3c(c(O)c1C2=O)C[C@@](O)(C(C)=O)C[C@@H]3O[C@H]1C[C@H](N)[C@H](O)[C@H](C)O1` [DNR, daunorubicin, reference compound]: the IC50 in the series with P388 cells (P388, 48 h, read-out: ID50) is 8.4 ng/mL (≈ 0.0159 µM); in the series with HeLa cells (24 h, read-out: ID50), 10.5 ng/mL (≈ 0.0199 µM). Also, the MTD in series [1] came to 15 mg/kg. The figures for the “TOXIC DEATHS” value in series [2] (10 mg/kg i.v. on day 1), in series [2] (15 mg/kg i.v. on day 1) and in series [2] (22.5 mg/kg i.v. on day 1) were 0/10, 0/10 and 2/10, respectively. The T/C % in series [2] (10 mg/kg i.v. on day 1 after tumor inoculum) was found to be 150%; in series [2] (15 mg/kg i.v. on day 1 after tumor inoculum), 183%; in series [2] (22.5 mg/kg i.v. on day 1 after tumor inoculum), 217%.

For the compound `COc1cccc2c1C(=O)c1c(O)c3c(c(O)c1C2=O)C[C@@](O)(C(=O)CO)C[C@@H]3O[C@H]1C[C@@H](CN)[C@@H](O)[C@H](C)O1` [IB, 3'-desamino-3'-aminomethyl-3',4'-epi-doxorubicin], the IC50 in the series with P388 cells (P388, cell counting after 48 hours exposure, read-out: ID50 (the source's name)) amounted to 10 ng/mL (≈ 0.0179 µM); in the series with HeLa cells (colony inhibition test after 24 hours exposure, read-out: ID50 (the source's name)), 6.4 ng/mL (≈ 0.0115 µM). Besides, in series [1], the MTD worked out at 32.1 mg/kg. Further, the “TOXIC DEATHS” value in series [2] (19 mg/kg i.v. on day 1) is reported as 0/10; in series [2] (24.7 mg/kg i.v. on day 1), 0/10; in series [2] (32.11 mg/kg i.v. on day 1), 1/10. Further, the T/C % in series [2] (19 mg/kg i.v. on day 1 after tumor inoculum) came out at 167%; in series [2] (24.7 mg/kg i.v. on day 1 after tumor inoculum), 183%; in series [2] (32.11 mg/kg i.v. on day 1 after tumor inoculum) it was 200%. The “potency in vivo compared with DNR” value in series [2] (administered iv) is “less potent than DNR”. In addition, the “activity in vivo compared with DNR” value in series [2] (iv, at the maxima tolerated dose (32.11 mg/Kg; DNR MxTD=15 mg/Kg)) is “more active than DNR”.
